Measured values taken from US6350757B1, “Beta-carboline compounds” (Les Laboratoires Servier, priority 1999, dated 2002).
Values belong to the compound of their own block, whether it stands above or below them.

Columns and labels:
5-HT2C receptors = molecular target: T1, 5-HT2C receptors (Rattus norvegicus, UniProt P08909); experiment: Penile erection test in the rat, erection induced by Ro 60-0175; assay type: in vivo; conditions: for ED50: rat, sc, read-out: ID50 (inhibitory dose50) for inhibition of penile erections induced by Ro 60-0175
T1 construct: Male rats of the Wistar line (Iffa-Credo, France); from tissue; host or cells: whole animal: male Wistar rat (in vivo)
T1 sequence (P08909 33-460): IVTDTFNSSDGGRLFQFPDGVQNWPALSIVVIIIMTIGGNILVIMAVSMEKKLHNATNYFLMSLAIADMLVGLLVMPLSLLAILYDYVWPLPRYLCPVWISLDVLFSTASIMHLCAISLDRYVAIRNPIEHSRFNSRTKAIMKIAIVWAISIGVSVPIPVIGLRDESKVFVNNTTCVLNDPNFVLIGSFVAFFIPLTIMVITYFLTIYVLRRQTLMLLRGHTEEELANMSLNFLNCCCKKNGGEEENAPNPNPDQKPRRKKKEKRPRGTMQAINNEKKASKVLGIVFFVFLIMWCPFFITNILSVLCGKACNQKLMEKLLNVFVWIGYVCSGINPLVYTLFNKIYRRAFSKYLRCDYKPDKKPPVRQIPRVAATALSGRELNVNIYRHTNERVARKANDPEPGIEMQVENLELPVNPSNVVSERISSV
Protocol: Penile Erection Test in the Rat, with Erection Induced by Ro 60-0175 (1.25 mg/kg, s.c.)
This test (Eur. J. Pharma., 1997, 325, 9-12) enables evaluation of the capacity of pharmacological agents to inhibit penile erections induced by the administration of Ro 60-0175, a selective 5-HT2C agonist. Inhibition is thus predictive of an antagonist activity in respect of 5-HT2C receptors. Male rats of the Wistar line (Iffa-Credo, France), weighing 120-140 g on the day of the experiment, are placed individually into plexiglass observation boxes (7.5×18×30 cm) having just been administered the product or its carrier. Thirty minutes later, the animals are administered Ro 60-0175 (1.25 mg/kg, s.c.) and the number of erections achieved in the course of the following 30 minutes is counted.

Structure (SMILES): CCOC(=O)C1(C2NCCc3c2[nH]c2ccc(OC)cc32)CCC1.Cl (stereo not drawn) [Example 7, Ethyl 1-(6-methoxy-2,3,4,9-tetrahydro-1H-β-carbolin-1-yl)cyclobutanecarboxylate Hydrochloride]
ED50 (5-HT2C receptors): 1.1 mg/kg

Structure (SMILES): CCOC(=O)C1(C2NCCc3c2[nH]c2cc(Cl)c(Cl)cc32)CCC1.Cl (stereo not drawn) [Example 6, Ethyl 1-(6,7-dichloro-2,3,4,9-tetrahydro-1H-β-carbolin-1-yl)cyclobutanecarboxylate Hydrochloride]
ED50 (5-HT2C receptors): 0.9 mg/kg

Structure (SMILES): CCOC(=O)C1(C2NCCc3c2[nH]c2ccc(Cl)cc32)CCC1.Cl (stereo not drawn) [Example 1, Ethyl 1-(6-chloro-2,3,4,9-tetrahydro-1H-β-carbolin-1-yl)cyclobutanecarboxylate Hydrochloride]
ED50 (5-HT2C receptors): 0.9 mg/kg

Next, values leading:

melting point: 232 to 233 °C
Structure (SMILES): COC(=O)C1(C2NCCc3c2[nH]c2ccc(Cl)cc32)CCC1.Cl (stereo not drawn)

ID50 (inhibitory dose50) for inhibition of penile erections induced by Ro 60-0175 (5-HT2C receptors; s.c., male Wistar rats, product given 30 min before Ro 60-0175 (1.25 mg/kg, s.c.), erections counted over following 30 min): 0.5 mg/kg
Structure (SMILES): CCOC(=O)C1(C2NCCc3c2[nH]c2ccc(Cl)c(Cl)c32)CCC1.Cl (stereo not drawn) [Example 18, Ethyl 1-(5,6-dichloro-2,3,4,9-tetrahydro-1H-β-carbolin-1-yl)cylobutanecarboxylate Hydrochloride]

melting point: 218 to 219 °C
Structure (SMILES): CCOC(=O)C1(C2c3[nH]c4ccc(Cl)cc4c3CCN2C(C)=O)CCC1 (stereo not drawn) [Example 79, Ethyl 1-(2-acetyl-6-chloro-2,3,4,9-tetrahydro-1H-β-carbolin-1-yl)cyclobutanecarboxylate]
